The numbers were not newly measured in patent US20210030918A1, “COATING OF FIBERS WITH DIPEPTIDE NANOSTRUCTURES USING ULTRASONIC CAVITATION” (Ramot at Tel-Aviv University Ltd., priority 2019, published 2021), which cites them from elsewhere.

The structures appear in SMILES notation.

For `COc1cc(/C=C/C(=O)CC(=O)/C=C/c2ccc(O)c(OC)c2)ccc1O` [Curcumin, (1E,6E)-1,7-bis(4-hydroxy-3-methoxyphenyl)-1,6-heptadiene-3,5-dione], the aqueous solubility entry is on record as “poor”.
